Measured values published in ChEMBL document CHEMBL5316337, “Critical Role of Position 10 Residue in the Polymyxin Antimicrobial Activity” (J Med Chem, 2023).
Values after ≈ are worked out from the molar mass of the structure shown. Bridge positions count the residues as written; N and C are the ends. Square brackets hold non-standard residues; d marks the D form. Peptide text beside a SMILES is read from it. * marks the point of attachment. X1 = CC[C@H](C)CCCCC(=O)*; Dab = NCC[C@H](N)C(=O)O

Legend:
Pseudomonas aeruginosa [1] = experiment: Antibacterial activity against Carbapenem-resistant Pseudomonas aeruginosa FADD1-PA022 clinical isolates assessed as reduction in bacterial growth by broth microdilution method; format: functional
Pseudomonas aeruginosa [2] = experiment: Antibacterial activity against polymyxin-susceptible Pseudomonas aeruginosa ATCC 27853 clinical isolates assessed as reduction in bacterial growth by broth microdilution method; format: functional
Enterobacter cloacae [3] = experiment: Antibacterial activity against polymyxin-susceptible Enterobacter cloacae FADD1-EC006 clinical isolates assessed as reduction in bacterial growth by broth microdilution method; format: functional
Pseudomonas aeruginosa [4] = experiment: Antibacterial activity against Carbapenem-resistant Pseudomonas aeruginosa FADD1-PA001 clinical isolates assessed as reduction in bacterial growth by broth microdilution method; format: functional
Enterobacter cloacae [5] = experiment: Antibacterial activity against polymyxin-susceptible Enterobacter cloacae FADD1-EC001 clinical isolates assessed as reduction in bacterial growth by broth microdilution method; format: functional
Klebsiella pneumoniae [6] = experiment: Antibacterial activity against Carbapenem-resistant Klebsiella pneumoniae FADD1-KP032 clinical isolates assessed as reduction in bacterial growth by broth microdilution method; format: functional
Acinetobacter baumannii [7] = experiment: Antibacterial activity against polymyxin-susceptible Acinetobacter baumannii ATCC 19606 clinical isolates assessed as reduction in bacterial growth by broth microdilution method; format: functional
Acinetobacter baumannii [8] = experiment: Antibacterial activity against polymyxin-susceptible Acinetobacter baumannii ATCC 17978 clinical isolates assessed as reduction in bacterial growth by broth microdilution method; format: functional
Pseudomonas aeruginosa [9] = experiment: Antibacterial activity against polymyxin-susceptible Pseudomonas aeruginosa FADD1-PA038 clinical isolates assessed as reduction in bacterial growth by broth microdilution method; format: functional
Klebsiella pneumoniae [10] = experiment: Antibacterial activity against polymyxin-susceptible Klebsiella pneumoniae ATCC 700721 clinical isolates assessed as reduction in bacterial growth by broth microdilution method; format: functional
Pseudomonas aeruginosa [11] = experiment: Antibacterial activity against polymyxin-susceptible Pseudomonas aeruginosa FADD1-PA025 clinical isolates assessed as reduction in bacterial growth by broth microdilution method; format: functional
Acinetobacter baumannii [12] = experiment: Antibacterial activity against Carbapenem-resistant Acinetobacter baumannii FADD1-AB034 clinical isolates assessed as reduction in bacterial growth by broth microdilution method; format: functional
Enterobacter cloacae [13] = experiment: Antibacterial activity against polymyxin-susceptible Enterobacter cloacae FADD1-EC003 clinical isolates assessed as reduction in bacterial growth by broth microdilution method; format: functional
Klebsiella pneumoniae [14] = experiment: Antibacterial activity against Carbapenem-resistant Klebsiella pneumoniae BM1 clinical isolates assessed as reduction in bacterial growth by broth microdilution method; format: functional
Acinetobacter baumannii [15] = experiment: Antibacterial activity against Carbapenem-resistant Acinetobacter baumannii FADD1-AB030 clinical isolates assessed as reduction in bacterial growth by broth microdilution method; format: functional
Klebsiella pneumoniae [16] = experiment: Antibacterial activity against Carbapenem-resistant Klebsiella pneumoniae FADD1-KP065 clinical isolates assessed as reduction in bacterial growth by broth microdilution method; format: functional
[17] = Acute toxicity in Swiss mouse assessed as maximum tolerated dose administered intravenously measured over 24 hrs; details: in vivo, route iv
Klebsiella pneumoniae [18] = experiment: Antibacterial activity against Carbapenem-resistant Klebsiella pneumoniae FADD1-KP022 clinical isolates assessed as reduction in bacterial growth by broth microdilution method; format: functional
[19] = Nephrotoxicity in Swiss mouse assessed as histopathological changes in kidney by measuring semiquantitative score at 12 mg/kg, sc administered as free base every 2 hrs for 6 doses and measured at 20 hrs; format: toxicity, organism-based; details: in vivo

Row | Structure (SMILES) | MIC (Pseudomonas aeruginosa [1]) | MIC (Pseudomonas aeruginosa [2]) | MIC (Enterobacter cloacae [3]) | MIC (Pseudomonas aeruginosa [4]) | MIC (Enterobacter cloacae [5]) | MIC (Klebsiella pneumoniae [6]) | MIC (Acinetobacter baumannii [7]) | MIC (Acinetobacter baumannii [8]) | MIC (Pseudomonas aeruginosa [9]) | MIC (Klebsiella pneumoniae [10]) | MIC (Pseudomonas aeruginosa [11]) | MIC (Acinetobacter baumannii [12]) | MIC (Enterobacter cloacae [13]) | MIC (Klebsiella pneumoniae [14]) | MIC (Acinetobacter baumannii [15]) | MIC (Klebsiella pneumoniae [16]) | MTD at 24 h [17] | MIC (Klebsiella pneumoniae [18]) | Activity [19]
1 | CC[C@H](C)CCCCC(=O)N[C@@H](CCN)C(=O)N[C@H](C(=O)N[C@@H](CCN)C(=O)N[C@H]1CCNC(=O)[C@H](CC(C)C)NC(=O)[C@H](CCN)NC(=O)[C@H](CCN)NC(=O)[C@H](CC(C)C)NC(=O)[C@@H](Cc2ccccc2)NC(=O)[C@H](CCN)NC1=O)[C@@H](C)O (X1-[Dab]T[Dab][Dab][Dab][dF]L[Dab][Dab]L; lactam 4-C) | 1 µg/mL (≈ 0.823 µM) | 2 µg/mL (≈ 1.65 µM) | 4 µg/mL (≈ 3.29 µM) | 1 µg/mL (≈ 0.823 µM) | 2 µg/mL (≈ 1.65 µM) | 4 µg/mL (≈ 3.29 µM) | 16 µg/mL (≈ 13.2 µM) | 2 µg/mL (≈ 1.65 µM) | 2 µg/mL (≈ 1.65 µM) | 4 µg/mL (≈ 3.29 µM) | 2 µg/mL (≈ 1.65 µM) | 8 µg/mL (≈ 6.58 µM) | 4 µg/mL (≈ 3.29 µM) | 2 µg/mL (≈ 1.65 µM) | 1 µg/mL (≈ 0.823 µM) | 0.5 µg/mL (≈ 0.411 µM) | 6.1 mg/kg | 0.25 µg/mL (≈ 0.206 µM) | 
2 | CC[C@H](C)CCCCC(=O)N[C@@H](CCN)C(=O)N[C@H](C(=O)N[C@@H](CCN)C(=O)N[C@H]1CCNC(=O)[C@H](CC)NC(=O)[C@H](CCN)NC(=O)[C@H](CCN)NC(=O)[C@H](CC(C)C)NC(=O)[C@@H](Cc2ccccc2)NC(=O)[C@H](CCN)NC1=O)[C@@H](C)O | 1 µg/mL (≈ 0.842 µM) | 1 µg/mL (≈ 0.842 µM) | 4 µg/mL (≈ 3.37 µM) | 1 µg/mL (≈ 0.842 µM) | 2 µg/mL (≈ 1.68 µM) | 1 µg/mL (≈ 0.842 µM) | 2 µg/mL (≈ 1.68 µM) | 2 µg/mL (≈ 1.68 µM) | 2 µg/mL (≈ 1.68 µM) | 4 µg/mL (≈ 3.37 µM) | 1 µg/mL (≈ 0.842 µM) | 2 µg/mL (≈ 1.68 µM) | 1 µg/mL (≈ 0.842 µM) | 0.5 µg/mL (≈ 0.421 µM) | 1 µg/mL (≈ 0.842 µM) | 0.5 µg/mL (≈ 0.421 µM) | 4.1 mg/kg | 0.25 µg/mL (≈ 0.211 µM) | 0
3 | CC[C@H](C)CCCCC(=O)N[C@@H](CCN)C(=O)N[C@H](C(=O)N[C@@H](CCN)C(=O)N[C@H]1CCNC(=O)[C@H]([C@@H](C)O)NC(=O)[C@H](CCN)NC(=O)[C@H](CCN)NC(=O)[C@H](CC(C)C)NC(=O)[C@@H](Cc2ccccc2)NC(=O)[C@H](CCN)NC1=O)[C@@H](C)O | 2 µg/mL (≈ 1.66 µM) | 1 µg/mL (≈ 0.831 µM) | 0.5 µg/mL (≈ 0.415 µM) | 2 µg/mL (≈ 1.66 µM) | 0.5 µg/mL (≈ 0.415 µM) | 0.25 µg/mL (≈ 0.208 µM) | 1 µg/mL (≈ 0.831 µM) | 1 µg/mL (≈ 0.831 µM) | 4 µg/mL (≈ 3.32 µM) | 1 µg/mL (≈ 0.831 µM) | 4 µg/mL (≈ 3.32 µM) | 1 µg/mL (≈ 0.831 µM) | 0.5 µg/mL (≈ 0.415 µM) | 0.5 µg/mL (≈ 0.415 µM) | 1 µg/mL (≈ 0.831 µM) | 0.5 µg/mL (≈ 0.415 µM) | 4 mg/kg | 0.25 µg/mL (≈ 0.208 µM) | 
4 | CCC[C@@H]1NC(=O)[C@H](CCN)NC(=O)[C@H](CCN)NC(=O)[C@H](CC(C)C)NC(=O)[C@@H](Cc2ccccc2)NC(=O)[C@H](CCN)NC(=O)[C@@H](NC(=O)[C@H](CCN)NC(=O)[C@@H](NC(=O)[C@H](CCN)NC(=O)CCCC[C@@H](C)CC)[C@@H](C)O)CCNC1=O | 1 µg/mL (≈ 0.832 µM) | 1 µg/mL (≈ 0.832 µM) | 2 µg/mL (≈ 1.66 µM) | 1 µg/mL (≈ 0.832 µM) | 2 µg/mL (≈ 1.66 µM) | 1 µg/mL (≈ 0.832 µM) | 4 µg/mL (≈ 3.33 µM) | 4 µg/mL (≈ 3.33 µM) | 2 µg/mL (≈ 1.66 µM) | 2 µg/mL (≈ 1.66 µM) | 2 µg/mL (≈ 1.66 µM) | 4 µg/mL (≈ 3.33 µM) | 2 µg/mL (≈ 1.66 µM) | 1 µg/mL (≈ 0.832 µM) | 0.5 µg/mL (≈ 0.416 µM) | 0.5 µg/mL (≈ 0.416 µM) | 4.1 mg/kg | 0.5 µg/mL (≈ 0.416 µM) | 0
5 | CC[C@H](C)CCCCC(=O)N[C@@H](CCN)C(=O)N[C@H](C(=O)N[C@@H](CCN)C(=O)N[C@H]1CCNC(=O)[C@H](CO)NC(=O)[C@H](CCN)NC(=O)[C@H](CCN)NC(=O)[C@H](CC(C)C)NC(=O)[C@@H](Cc2ccccc2)NC(=O)[C@H](CCN)NC1=O)[C@@H](C)O | 0.5 µg/mL (≈ 0.42 µM) | 0.5 µg/mL (≈ 0.42 µM) | 0.5 µg/mL (≈ 0.42 µM) | 0.5 µg/mL (≈ 0.42 µM) | 0.5 µg/mL (≈ 0.42 µM) | 0.25 µg/mL (≈ 0.21 µM) | 2 µg/mL (≈ 1.68 µM) | 1 µg/mL (≈ 0.841 µM) | 1 µg/mL (≈ 0.841 µM) | 0.5 µg/mL (≈ 0.42 µM) | 2 µg/mL (≈ 1.68 µM) | 1 µg/mL (≈ 0.841 µM) | 0.25 µg/mL (≈ 0.21 µM) | 0.25 µg/mL (≈ 0.21 µM) | 1 µg/mL (≈ 0.841 µM) | 0.25 µg/mL (≈ 0.21 µM) | 4.1 mg/kg | < 0.125 µg/mL | 
